Test results from patent US7949164B2, “Lung cancer diagnosis using magnetic resonance imaging data obtained at three time points” (Yeda Research & Development Co. Ltd., priority 2005, dated 2011).

How the values were obtained:
[1] = listed under H460 NSCLC tumor tissue; Furman-Haran, 1997; cited from earlier work
[2] = Contrast agent pharmacokinetics in plasma: bi-exponential fit of DCE-MRI signal enhancement curves (heart ventricle / great vessels) after bolus injection; type: in vivo; conditions: nude rats, bolus into tail vein, dose 0.1 mmol/kg wt
Method: Enhancement, E(t), is defined as the difference in signal intensities before and after contrast material injection: E(t)=[I(t)−I(t0)]/I(t0) Eq. (1) where I designates signal intensity. Assuming similar pharmacokinetics for all patients with normal kidney function, Cp(t) in ml contrast agent per liter blood may be given by the equation: Cp(t)=D(a1e^−m1^t+a2e^−m2^t) D=dose in ml/kg Eq. (2)
To determine contrast agent pharmacokinetics, GdDTPA was injected as a bolus into the tail of the rats at a dose of 0.1 mmol/kg. Changes in the bolus concentration of the contrast agent after injection were monitored by fitting the signal enhancement curves of the in vivo DCE-MRI studies, of regions of interest at the heart ventricle or in one of the great vessels, to a bi-exponential decay. Similar values were previously derived by measurements of blood samples taken after the bolus injection.
The time-dependent changes in signal enhancement were processed pixel-by-pixel using Tofts' physiological model, the contrast agent pharmacokinetics and pre-contrast T1 values (Table 1), and the calibration algorithms herein described.

O=C([O-])CN(CCN(CC(=O)[O-])CC(=O)O)CCN(CC(=O)[O-])CC(=O)O.[Gd+3] [Gd-DTPA, Gadolinium-diethylene triamino pentaacetic acid]
R1, T1 relaxivity [1]: 4.2 {Furman- s^−1mM^−1
a1, Amplitude of fast decay [2]: 9.44 kg/L
a2, Amplitude of slow decay [2]: 3.99 kg/L
m1, Fast decay time constant [2]: 0.75 min⁻¹
m2, Slow decay time constant [2]: 0.033 min⁻¹
